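Protocol summary: plate cells (96-well), add compound at 5 concentrations, incubate 48 h, interpolate endpoints linearly. The concentration for full growth arrest is given as TGI.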
How the values were obtained:
Assay in all cases: growth of human tumour cells (NCI), 48 h
SK-MEL-2 melanoma = test system: SK-MEL-2 melanoma
HCT-15 colon = test system: HCT-15 colon
SK-OV-3 ovarian = test system: SK-OV-3 ovarian
RPMI-8226 leukemia = test system: RPMI-8226 leukemia
EKVX NSCLC = test system: EKVX NSCLC
BT-549 breast = test system: BT-549 breast
DU-145 prostate = test system: DU-145 prostate
SK-MEL-5 melanoma = test system: SK-MEL-5 melanoma
CAKI-1 renal = test system: CAKI-1 renal
MDA-N = test system: MDA-N
UO-31 renal = test system: UO-31 renal
MDA-MB-231 breast = test system: MDA-MB-231 breast
HOP-92 NSCLC = test system: HOP-92 NSCLC
SN12C renal = test system: SN12C renal
UACC-62 melanoma = test system: UACC-62 melanoma
UACC-257 melanoma = test system: UACC-257 melanoma
T-47D breast = test system: T-47D breast
NCI/ADR-RES ovarian = test system: NCI/ADR-RES ovarian
MOLT-4 leukemia = test system: MOLT-4 leukemia
SK-MEL-28 melanoma = test system: SK-MEL-28 melanoma
SR leukemia = test system: SR leukemia
NCI-H522 lung = test system: NCI-H522 lung
NCI-H460 lung = test system: NCI-H460 lung
U251 CNS = test system: U251 CNS
IGROV1 ovarian = test system: IGROV1 ovarian
OVCAR-3 ovarian = test system: OVCAR-3 ovarian
HOP-62 NSCLC = test system: HOP-62 NSCLC
SNB-75 CNS = test system: SNB-75 CNS
A549 NSCLC = test system: A549 NSCLC
OVCAR-8 ovarian = test system: OVCAR-8 ovarian
OVCAR-5 ovarian = test system: OVCAR-5 ovarian
PC-3 prostate = test system: PC-3 prostate
A498 renal = test system: A498 renal
RXF 393 renal = test system: RXF 393 renal
MALME-3M melanoma = test system: MALME-3M melanoma
M14 melanoma = test system: M14 melanoma
COLO 205 colon = test system: COLO 205 colon
HT29 colon = test system: HT29 colon
HCT-116 colon = test system: HCT-116 colon
CCRF-CEM leukemia = test system: CCRF-CEM leukemia
OVCAR-4 ovarian = test system: OVCAR-4 ovarian
NCI-H226 lung = test system: NCI-H226 lung
SW-620 colon = test system: SW-620 colon
KM12 colon = test system: KM12 colon
K-562 leukemia = test system: K-562 leukemia
SF-268 CNS = test system: SF-268 CNS
MCF7 breast = test system: MCF7 breast
HS 578T breast = test system: HS 578T breast
NCI-H23 lung = test system: NCI-H23 lung
SF-295 CNS = test system: SF-295 CNS
SNB-19 CNS = test system: SNB-19 CNS
HL-60(TB) leukemia = test system: HL-60(TB) leukemia
TK-10 renal = test system: TK-10 renal
SF-539 CNS = test system: SF-539 CNS
786-0 renal = test system: 786-0 renal
MDA-MB-435 = test system: MDA-MB-435
ACHN renal = test system: ACHN renal
HCC-2998 colon = test system: HCC-2998 colon
LOX IMVI melanoma = test system: LOX IMVI melanoma

Measured: TGI

COc1ccc(N2CCOCC2)cc1
not listed: LOX IMVI melanoma
> 100 µM: all other assays above

COc1nc2ncc([C@@H](O)[C@H](O)CO)nc2c(=O)n1C
not listed: NCI-H23 lung | HCC-2998 colon
> 100 µM: all other assays above

NCC(O)CSP(=O)(O)O (configuration not stated)
not listed: SF-539 CNS | HCC-2998 colon
> 100 µM: all other assays above

Source: PubChem BioAssay (NCI)
